Measured values taken from patent US20230389542A1, “USE OF [(1,5-DIPHENYL-1H-PYRAZOL-3-YL)OXY] ACETIC ACID DERIVATIVES AND THEIR SALTS AND COMPOSITIONS CONTAINING THEM, FOR REDUCING PHYTOTOXIC EFFECTS OF AGROCHEMICALS, IN PARTICULAR OF HERBICIDES, IN USEFUL PLANTS AND CROP PLANTS” (BAYER AKTIENGESELLSCHAFT, priority 2020, published 2023).
Values joined by “and” are separate entries in the source; they are usually repeats but may differ in a detail not shown here. Equal entries are not always repeated.

Legend:
Type in all cases: in vivo
[1] = system: summer wheat (TRZAS; cv. Triso); assay: Absolute action: reduction of damage by mesosulfuron-methyl on summer wheat, greenhouse post-emergence; set-up: key to Absolute reduction in damage (difference): percentage points of visual damage (0-100% scale vs untreated)
Experimental: (§1) 2.1 Absolute Action of Selected Compounds of the Invention Using the Example of Reduction of Damage by Mesosulfuron-Methyl on Summer Wheat (TRZAS) The seeds of the crop plants to be treated are laid out in sandy loam in wood fiber or plastic pots (diameter ˜4 cm), covered with soil and grown in a greenhouse under good conditions for germination and growth. The trial plants were treated at the early leaf stage (BBCH10-BBCH12). In the course of this, the inventive compounds of the general formula (D formulated in the form of wettable powders (WP) were sprayed onto the above-ground parts of the plants as an aqueous suspension with a water application rate corresponding to 800 l/ha with addition of wetting agent (e.g. 0.2% agrotin) in the specified dose. This was followed by the application of the herbicide. For this purpose, mesosulfuron-methyl, formulated in the form of water-dispersible granules (WG), was sprayed onto the above-ground parts of the plants in the form of an aqueous dispersion with a water application rate corresponding to 800 l/ha with addition of wetting agent (e.g. 0.2% agrotin) in a dose of 20 g/ha. The dose of the herbicide was chosen here such that it causes visually apparent damage (min. 30%, max. 75%) compared to untreated crop plants at the evaluation time on a control group of crop plants without safener treatment that were included in the same trial. After application, the plants were cultivated under good growth conditions in a greenhouse. The damage was visually assessed 14-21 days after application. The damage effect was assessed visually on a scale of 0-100% by comparison with untreated control plants, and averaged over 2-3 repeats per treatment. Examples: • 0%=no noticeable effect compared to the untreated plant • 20%=the treated plant population has 20% damage compared to the untreated control population (e.g. growth height, leaf damage, etc.) • 100%=treated plants completely damaged/killed.

[2] = system: summer barley (HORVS; cv. Montoya); assay: Absolute action: reduction of damage by mesosulfuron-methyl on summer barley, greenhouse post-emergence; set-up: key to Absolute reduction in damage (difference): difference in % damage (0-100% visual scale vs untreated control)
Experimental: as §1, with “2.2” for “2.1”, “Barley (HORVS)” for “Wheat (TRZAS)”, “(I)” for “(D”

[3] = system: summer wheat (TRZAS; cv. Triso); assay: Relative action (efficacy code): reduction of damage by mesosulfuron-methyl on summer wheat; set-up: key: 0: no reduction in damage (appearance corresponding to the herbicide control); 1: slight reduction in damage; 2: distinct reduction in damage; 3: significant reduction in damage; 4: complete reduction in damage (appearance corresponding to the untreated control); details: visual, 9-13 days after application
Experimental: 2.3 Relative Action of Selected Compounds of the Invention Using the Example of Reduction of Damage by Mesosulfuron-Methyl on Summer Wheat (TRZAS) The seeds of the crop plants to be treated are laid out in sandy loam in plastic pots (diameter μ4 cm), covered with soil and grown in a greenhouse under good conditions for germination and growth. The trial plants were treated at the early leaf stage (BBCH10-BBCH12). In the course of this, the inventive compounds of the general formula (I) formulated in the form of wettable powders (WP) were sprayed onto the above-ground parts of the plants as an aqueous suspension with a water application rate corresponding to 800 l/ha with addition of wetting agent (e.g. 0.2% Genapol-LRO or 0.2% Mero) in the specified dose. This was followed by the application of the herbicide. For this purpose, mesosulfuron-methyl, formulated in the form of water-dispersible granules (WG), was sprayed onto the above-ground parts of the plants in the form of an aqueous dispersion with a water application rate corresponding to 800 l/ha with addition of wetting agent (e.g. 0.2% Genapol-LRO or 1 l/ha Biopower) in a dose of 40-60 g/ha. The dose of the herbicide was chosen here such that it causes visually apparent damage (min. 30%, max. 75%) compared to untreated crop plants at the evaluation time on a control group of crop plants without safener treatment that were included in the same trial. After application, the plants were cultivated under good growth conditions in a greenhouse. 9-13 days after application, the efficacy of the test compounds was assessed visually. For this purpose, the appearance of the plants treated with the test compound and herbicide was compared to the corresponding herbicide controls (without safener; with clearly visible damage) and the untreated controls (without damage). The damage-reducing effect of the test compounds was expressed here in graded efficacy codes according to the following scheme: • 0: no reduction in damage (appearance corresponding to the herbicide control) • 1: slight reduction in damage • 2: distinct reduction in damage • 3: significant reduction in damage • 4: complete reduction in damage (appearance corresponding to the untreated control) The trials show clear efficacy of the inventive compounds selected by way of example with regard to the reduction in damage to the summer wheat crop plant (TRZAS; cv. Triso) caused by the herbicide mesosulfuron-methyl: […]

[4] = safener 125 g/ha + mesosulfuron-methyl 20 g/ha
[5] = safener 125 g/ha + mesosulfuron-methyl 20 g/ha, visual, 14-21 days after application
[6] = safener 500 g/ha + mesosulfuron-methyl 20 g/ha
[7] = safener 500 g/ha + mesosulfuron-methyl 20 g/ha, visual, 14-21 days after application
[8] = safener 100 g/ha + mesosulfuron-methyl 40-60 g/ha
[9] = safener 500 g/ha + mesosulfuron-methyl 40-60 g/ha
[10] = mesosulfuron-methyl 20 g/ha alone (no safener), visual, 14-21 days after application, scale 0-100%

O=C(O)COc1cc(-c2ccccc2)n(-c2ccc(Cl)cc2)n1 [I.3-7]
Absolute reduction in damage (difference) [1, 4]: 26
Herbicide damage with compound of the formula (I) [1, 5]: 37%

COc1ccccc1-n1nc(OCC(=O)O)cc1-c1ccccc1 [I.3-20]
Absolute reduction in damage (difference) [1, 6]: 36
Herbicide damage with compound of the formula (I) [1, 7]: 17%

CCOC(=O)COc1cc(-c2ccc(F)cc2)n(-c2ccccc2OC)n1 [I.11-20]
Absolute reduction in damage (difference) [1, 4]: 46
Herbicide damage with compound of the formula (I) [1, 5]: 7%
Absolute reduction in damage (difference) [1, 6]: 46
Herbicide damage with compound of the formula (I) [1, 7]: 7%

CCOC(=O)COc1cc(-c2ccc(F)cc2)n(-c2ccc(F)cc2F)n1 [I.11-38]
Absolute reduction in damage (difference) [1, 4]: 43
Herbicide damage with compound of the formula (I) [1, 5]: 10%
Absolute reduction in damage (difference) [1, 6]: 43
Herbicide damage with compound of the formula (I) [1, 7]: 10%
Absolute reduction in damage (difference) [2, 4]: 23
Herbicide damage with compound of the formula (I) [2, 5]: 37%
Absolute reduction in damage (difference) [2, 6]: 33
Herbicide damage with compound of the formula (I) [2, 7]: 27%

O=C(O)COc1cc(-c2ccc(F)cc2)n(-c2ccc(F)cc2)n1 [I.12-4]
Absolute reduction in damage (difference) [1, 6]: 46
Herbicide damage with compound of the formula (I) [1, 7]: 7%
Absolute reduction in damage (difference) [2, 6]: 27
Herbicide damage with compound of the formula (I) [2, 7]: 33%

CCOC(=O)COc1cc(-c2ccc(Cl)cc2)n(-c2ccc(Cl)cc2F)n1 [I.20-49]
Efficacy of the safener (efficacy code) [3, 8]: 3
Efficacy of the safener (efficacy code) [3, 9]: 3

COc1ccccc1-n1nc(OCC(=O)O)cc1-c1ccc(Cl)cc1 [I.21-20]
Absolute reduction in damage (difference) [1, 4]: 30
Herbicide damage with compound of the formula (I) [1, 5]: 23%
Absolute reduction in damage (difference) [1, 6]: 36
Herbicide damage with compound of the formula (I) [1, 7]: 17%

O=C(O)COc1cc(-c2ccc(Cl)cc2)n(-c2ccc(F)cc2F)n1 [I.21-38]
Absolute reduction in damage (difference) [1, 4]: 46
Herbicide damage with compound of the formula (I) [1, 5]: 7%
Absolute reduction in damage (difference) [1, 6]: 50
Herbicide damage with compound of the formula (I) [1, 7]: 3%
Absolute reduction in damage (difference) [2, 4]: 33
Herbicide damage with compound of the formula (I) [2, 5]: 27%
Absolute reduction in damage (difference) [2, 6]: 33
Herbicide damage with compound of the formula (I) [2, 7]: 27%

CCOC(=O)COc1cc(-c2ccc(F)cc2F)n(-c2ccccc2)n1 [I.41-1]
Absolute reduction in damage (difference) [1, 4]: 53
Herbicide damage with compound of the formula (I) [1, 5]: 0%

CCOC(=O)COc1cc(-c2ccc(F)cc2F)n(-c2ccc(F)cc2)n1 [I.41-4]
Absolute reduction in damage (difference) [1, 4]: 40
Herbicide damage with compound of the formula (I) [1, 5]: 13%
Absolute reduction in damage (difference) [2, 4]: 23
Herbicide damage with compound of the formula (I) [2, 5]: 37%

CCOC(=O)COc1cc(-c2ccc(F)cc2F)n(-c2ccccc2OC)n1 [I.41-20]
Absolute reduction in damage (difference) [1, 4]: 36
Herbicide damage with compound of the formula (I) [1, 5]: 17%
Absolute reduction in damage (difference) [1, 6]: 43
Herbicide damage with compound of the formula (I) [1, 7]: 10%

CCOC(=O)COc1cc(-c2ccc(F)cc2F)n(-c2ccc(F)cc2F)n1 [I.41-38]
Absolute reduction in damage (difference) [1, 6]: 40
Herbicide damage with compound of the formula (I) [1, 7]: 13%
Absolute reduction in damage (difference) [2, 6]: 33
Herbicide damage with compound of the formula (I) [2, 7]: 27%

COc1ccccc1-n1nc(OCC(=O)O)cc1-c1ccc(F)cc1F [I.42-20]
Absolute reduction in damage (difference) [1, 4]: 40
Herbicide damage with compound of the formula (I) [1, 5]: 13%

O=C(O)COc1cc(-c2ccc(F)cc2F)n(-c2ccc(F)cc2F)n1 [I.42-38]
Absolute reduction in damage (difference) [1, 4]: 33
Herbicide damage with compound of the formula (I) [1, 5]: 20%
Absolute reduction in damage (difference) [2, 4]: 23
Herbicide damage with compound of the formula (I) [2, 5]: 37%

CCOC(=O)COc1cc(-c2ccc(Cl)cc2F)n(-c2ccc(Cl)cc2)n1 [I.47-7]
Efficacy of the safener (efficacy code) [3, 8]: 2
Efficacy of the safener (efficacy code) [3, 9]: 2

O=C(O)COc1cc(-c2ccc(Cl)cc2F)n(-c2ccc(F)cc2F)n1 [I.48-38]
Efficacy of the safener (efficacy code) [3, 8]: 2
Efficacy of the safener (efficacy code) [3, 9]: 2

COC(=O)c1ccc(CNS(C)(=O)=O)cc1S(=O)(=O)NC(=O)Nc1nc(OC)cc(OC)n1 [mesosulfuron-methyl, reference compound]
Herbicide damage without compound of the formula (I) [1, 10]: 53% and 63%
Herbicide damage without compound of the formula (I) [2, 10]: 60%
